Values of other authors in US20040220281A1, “Treatment of hormone-refractory prostate cancer” (priority 2003, published 2004).
Read-outs that look alike come from different tables or passages of the source.

Legend:
CYP 3A4 = CYP 3A4 (Homo sapiens, UniProt P08684)
[1] = biological target: p-glycoprotein (P-gp) pump (Homo sapiens, UniProt P08183)
[2] = in vitro
[3] = in vivo

Sequence of CYP 3A4 (P08684 whole entry, species assumed): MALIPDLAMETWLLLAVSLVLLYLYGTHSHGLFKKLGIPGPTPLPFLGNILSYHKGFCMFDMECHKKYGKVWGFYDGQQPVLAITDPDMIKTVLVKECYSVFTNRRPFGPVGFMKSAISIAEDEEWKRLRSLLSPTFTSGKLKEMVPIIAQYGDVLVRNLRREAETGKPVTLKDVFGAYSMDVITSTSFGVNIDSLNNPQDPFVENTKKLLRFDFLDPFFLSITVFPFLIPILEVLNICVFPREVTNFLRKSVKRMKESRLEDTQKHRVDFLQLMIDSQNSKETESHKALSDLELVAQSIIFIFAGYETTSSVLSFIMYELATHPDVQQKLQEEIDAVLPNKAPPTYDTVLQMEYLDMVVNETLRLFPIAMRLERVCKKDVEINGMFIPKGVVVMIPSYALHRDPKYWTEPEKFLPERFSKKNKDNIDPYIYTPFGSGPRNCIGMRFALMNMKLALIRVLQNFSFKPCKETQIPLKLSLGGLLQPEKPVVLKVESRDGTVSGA
Sequence of p-glycoprotein (P-gp) pump (P08183 whole entry): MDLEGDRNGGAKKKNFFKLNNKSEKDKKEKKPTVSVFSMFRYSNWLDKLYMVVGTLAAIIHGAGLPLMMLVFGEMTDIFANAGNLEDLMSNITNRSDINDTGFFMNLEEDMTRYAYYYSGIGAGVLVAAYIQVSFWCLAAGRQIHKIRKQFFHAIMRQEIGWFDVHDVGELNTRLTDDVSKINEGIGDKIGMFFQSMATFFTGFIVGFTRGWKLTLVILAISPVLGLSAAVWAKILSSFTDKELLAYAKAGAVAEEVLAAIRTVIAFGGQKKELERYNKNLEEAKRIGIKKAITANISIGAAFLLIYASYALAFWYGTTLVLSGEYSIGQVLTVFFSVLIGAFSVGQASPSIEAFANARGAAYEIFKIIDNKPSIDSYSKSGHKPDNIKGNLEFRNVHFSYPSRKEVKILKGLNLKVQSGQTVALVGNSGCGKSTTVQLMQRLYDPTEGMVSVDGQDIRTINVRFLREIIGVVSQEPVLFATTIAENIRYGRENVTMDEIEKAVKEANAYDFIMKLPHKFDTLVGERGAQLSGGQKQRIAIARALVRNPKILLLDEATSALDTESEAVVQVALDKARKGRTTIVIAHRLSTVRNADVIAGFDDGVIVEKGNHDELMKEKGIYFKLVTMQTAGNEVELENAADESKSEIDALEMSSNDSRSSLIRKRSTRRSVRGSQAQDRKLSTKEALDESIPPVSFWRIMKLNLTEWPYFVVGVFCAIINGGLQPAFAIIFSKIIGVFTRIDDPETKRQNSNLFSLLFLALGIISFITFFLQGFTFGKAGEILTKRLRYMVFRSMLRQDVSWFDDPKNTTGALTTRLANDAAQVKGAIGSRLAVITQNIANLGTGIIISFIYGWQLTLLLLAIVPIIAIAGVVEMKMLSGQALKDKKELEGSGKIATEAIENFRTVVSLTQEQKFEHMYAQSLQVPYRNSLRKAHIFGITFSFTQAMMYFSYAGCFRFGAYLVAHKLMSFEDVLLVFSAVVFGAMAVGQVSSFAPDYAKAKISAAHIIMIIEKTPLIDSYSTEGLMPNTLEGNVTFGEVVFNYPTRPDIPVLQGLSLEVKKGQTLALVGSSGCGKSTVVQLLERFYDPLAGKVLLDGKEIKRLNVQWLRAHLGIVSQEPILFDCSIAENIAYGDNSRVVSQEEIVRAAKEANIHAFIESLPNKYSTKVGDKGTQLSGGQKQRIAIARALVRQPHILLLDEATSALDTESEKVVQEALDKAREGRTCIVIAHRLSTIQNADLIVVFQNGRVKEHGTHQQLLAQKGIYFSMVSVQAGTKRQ

For `CCN(CC)CCOc1ccc(Cc2ccccc2)cc1` [DPPE, N,N-diethyl-2-[4-(phenylmethyl)-phenoxy]ethanamine], the “substrate for CYP 3A4” value (CYP 3A4) is listed as “potent substrate”, the “inhibition of the p-glycoprotein (P-gp) pump” value [1] is listed as “inhibits” and the “potentiation of cytotoxicity of a variety of antineoplastic drugs” value [2] is listed as “potentiates the cytotoxicity”. For the same compound, the “potentiation of cytotoxicity of a variety of antineoplastic drugs” value [3] was “potentiates the cytotoxicity”.
